Patent US20030104507A1, “Method for detection of ATP” (priority 2001, published 2003)

Tested on: ATPase activity endogenous to L929 cell lysate
Experiment: Detergent inhibition of ATPase endogenous to L929 cell lysate (ATP remaining by luciferase luminescence, 22° C.)
Format: biochemical
Parameters: key to Relative ATPase Activity, slope det/slope lysate: slope with detergent / slope without; ≥1.0 = 100% activity, 0.5 = 50%
Method: Three separate detergents in each of four detergent classes were tested: anionic [SDS (Sodium dodecyl sulfate), Bioterge (an α olefin sulfate), and sodium deoxycholate], nonionic [TRITON X-100, BigCHAP (N,N-bis(3-D-Gluconamidopropyl)cholamide) and THESIT (polyethylene glycol 400 dodecyl ether, Fluka, #88315)], cationic [BDDABr (Benzyldimethyldodecylammonium bromide), CTAB (Cetyltrimethylammonium bromide), and DTAB (dodecyltrimethylammonium bromide)] and zwitterionic [CHAPS (3[(3-Cholamidopropyl)dimethylammonio]propanesulfonic acid), CHAPSO (3-([3-Cholamidopropyl]dimethylammonio)-2-hydroxy-1-propanesulfonate), and Sulfobetaine 3-10 ([…]-N,N-dimethyl-3-ammonio-1-propanesulfonate)]. Detergents were obtained from Sigma, Fluka and Aldrich.
L929 cells (ATCC CCL-1; 1.5×10^5 cells/ml) in F12/DMEM (Hyclone, SH30023) containing 10% horse serum (Hyclone, SH30074) were frozen and thawed for four cycles to create a cell lysate. Then 50 μl of stock detergent solutions [10%, 5.0%, 1.0%, and 0.5% (w/v)] were separately added to 450 μl cell lysate, creating a final detergent concentration in the cell lysate sample of 1.0%, 0.5%, 0.1%, and 0.05%, respectively (these percentage values are those used in Tables D and E herein below). Control samples contained either lysate only or 1.0 μM ATP in 15 mM HEPES buffer (pH 7.5). All samples were incubated at 22° C. (room temperature) for the duration of the experiment.
At various timepoints, 20 μl from each sample/detergent mixture was added to a 96-well luminometer plate in triplicate, and then 100 μl of a solution (“luciferase-luciferin” or “L/L reagent”) containing 25 mM HEPES buffer (pH 7.5), 40 μg luciferase enzyme LucPpe2m146 (Promega, E140), 100 μM luciferin (Promega), and 10 mM MgSO4 was added to each well. The L/L reagent was stored at 4° C. for the duration of the experiment and then allowed to reach ambient temperature just before assaying. After mixing the contents of the plate, light output was measured with a Dynex MLX microtiter plate luminometer (Chantilly, Va.), 0.5 second reads per well with the first measurement taken five minutes after the detergent solution was combined with the sample. The average relative light units and the timepoint at which it was measured (rlu; Table D) and percent of remaining luciferase activity at the timepoint (Table E) are reported; controls were run with each set of experimental conditions as indicated. The cationic and anionic detergents were assayed on one day with one set of controls. The zwitterionic and nonionic detergents were assayed on a separate day with a separate set of controls. The DTAB at 0.5% was assayed on both days (1 and 2).
The experiment was performed as detailed in Example 1. The average relative light unit values and the percent of ATP remaining values are listed below in Table F and G respectively.
The log of the percent of ATP remaining after original timepoint values from Table E and Table G were plotted on the y axis against time (in minutes) on the x axis. The slope of the line generated by these values in the presence of detergent was divided by the slope of the line generated by the values in the absence of detergent (lysate control) resulting in the Relative ATPase Activity values listed below in Table H.
A relative activity value of 1.0 or greater indicates 100% cellular ATPase activity at the concentration of detergent tested. A relative activity value of 0.5 indicates a two-fold (or 50%) decrease in the level of cellular ATPase activity at the concentration of detergent tested when compared to the ATPase activity level in the absence of the detergent. A relative activity value of 0.2 indicates a five-fold (or 80%) decrease in the level of cellular ATPase activity at the concentration of detergent tested when compared to the ATPase activity level in the absence of the detergent.

[1] = Example 2, 0.02% detergent, 5 min
[2] = Example 2, 0.02% detergent, 75 min
[3] = Example 2, 0.02% detergent, 169 min
[4] = Example 2, 0.02% detergent, 222 min
[5] = Example 2, 0.02% detergent, 260 min

## CCCCCCCCCCCC[N+](C)(C)Cc1ccccc1.[Br-] [BDDABr, Benzyldimethyldodecylammonium bromide]
0.02 percent detergent
  Relative ATPase Activity, slope det/slope lysate: 0.623
  Slope (log percent ATP remaining vs time in minutes): −0.0039
0.05% detergent, 5 min
  Average Relative Light Unit Values: 7077.46 rlu
  Percent ATP Remaining: 100%
0.05% detergent, 75 min
  Average Relative Light Unit Values: 4539.97 rlu
  Percent ATP Remaining: 64.1%
0.05% detergent, 169 min
  Average Relative Light Unit Values: 2465.57 rlu
  Percent ATP Remaining: 34.8%
0.05% detergent, 222 min
  Average Relative Light Unit Values: 1680.16 rlu
  Percent ATP Remaining: 23.7%
0.05% detergent, 260 min
  Average Relative Light Unit Values: 1233.82 rlu
  Percent ATP Remaining: 17.4%
0.05 percent detergent
  Relative ATPase Activity, slope det/slope lysate: 0.528
  Slope (log percent ATP remaining vs time in minutes): −0.0030
0.1% detergent, 5 min
  Average Relative Light Unit Values: 7069.08 rlu
  Percent ATP Remaining: 100%
0.1% detergent, 75 min
  Average Relative Light Unit Values: 5136.92 rlu
  Percent ATP Remaining: 72.7%
0.1% detergent, 169 min
  Average Relative Light Unit Values: 3260.59 rlu
  Percent ATP Remaining: 46.1%
0.1% detergent, 222 min
  Average Relative Light Unit Values: 2366.49 rlu
  Percent ATP Remaining: 33.5%
0.1% detergent, 260 min
  Average Relative Light Unit Values: 1767.58 rlu
  Percent ATP Remaining: 25.0%
0.10 percent detergent
  Relative ATPase Activity, slope det/slope lysate: 0.414
  Slope (log percent ATP remaining vs time in minutes): −0.0023
0.5% detergent, 5 min
  Average Relative Light Unit Values: 122.47 rlu
  Percent ATP Remaining: 100%
0.5% detergent, 75 min
  Average Relative Light Unit Values: 107.39 rlu
  Percent ATP Remaining: 87.7%
0.5% detergent, 169 min
  Average Relative Light Unit Values: 93.92 rlu
  Percent ATP Remaining: 76.2%
0.5% detergent, 222 min
  Average Relative Light Unit Values: 96.68 rlu
  Percent ATP Remaining: 78.9%
0.5% detergent, 260 min
  Average Relative Light Unit Values: 101.11 rlu
  Percent ATP Remaining: 82.6%
0.50 percent detergent
  Relative ATPase Activity, slope det/slope lysate: 0.064
  Slope (log percent ATP remaining vs time in minutes): −0.0004
1.0% detergent, 5 min
  Average Relative Light Unit Values: 0.49 rlu
1.0% detergent, 75 min
  Average Relative Light Unit Values: 0.51 rlu
1.0% detergent, 169 min
  Average Relative Light Unit Values: 0.44 rlu
1.0% detergent, 222 min
  Average Relative Light Unit Values: 0.42 rlu
1.0% detergent, 260 min
  Average Relative Light Unit Values: 0.43 rlu
[1]
  Average Relative Light Unit Values: 6215.32 rlu
  Percent ATP Remaining: 100.00%
[2]
  Average Relative Light Unit Values: 2686.49 rlu
  Percent ATP Remaining: 48.53%
[3]
  Average Relative Light Unit Values: 962.85 rlu
  Percent ATP Remaining: 21.51%
[4]
  Average Relative Light Unit Values: 604.47 rlu
  Percent ATP Remaining: 13.18%
[5]
  Average Relative Light Unit Values: 429.86 rlu
  Percent ATP Remaining: 9.74%

## CCCCCCCCCCCCCCCC[N+](C)(C)C.[Br-] [CTAB, Cetyltrimethylammonium bromide]
0.02 percent detergent
  Relative ATPase Activity, slope det/slope lysate: 0.718
  Slope (log percent ATP remaining vs time in minutes): −0.0046
0.05% detergent, 5 min
  Average Relative Light Unit Values: 6525.51 rlu
  Percent ATP Remaining: 100%
0.05% detergent, 75 min
  Average Relative Light Unit Values: 4029.32 rlu
  Percent ATP Remaining: 61.7%
0.05% detergent, 169 min
  Average Relative Light Unit Values: 2093.80 rlu
  Percent ATP Remaining: 32.1%
0.05% detergent, 222 min
  Average Relative Light Unit Values: 1437.67 rlu
  Percent ATP Remaining: 22.0%
0.05% detergent, 260 min
  Average Relative Light Unit Values: 1002.72 rlu
  Percent ATP Remaining: 15.4%
0.05 percent detergent
  Relative ATPase Activity, slope det/slope lysate: 0.561
  Slope (log percent ATP remaining vs time in minutes): −0.0031
0.1% detergent, 5 min
  Average Relative Light Unit Values: 5104.82 rlu
  Percent ATP Remaining: 100%
0.1% detergent, 75 min
  Average Relative Light Unit Values: 3607.65 rlu
  Percent ATP Remaining: 70.7%
0.1% detergent, 169 min
  Average Relative Light Unit Values: 1889.29 rlu
  Percent ATP Remaining: 37.0%
0.1% detergent, 222 min
  Average Relative Light Unit Values: 1248.51 rlu
  Percent ATP Remaining: 24.5%
0.10 percent detergent
  Relative ATPase Activity, slope det/slope lysate: 0.507
  Slope (log percent ATP remaining vs time in minutes): −0.0028
0.5% detergent, 5 min
  Average Relative Light Unit Values: 0.34 rlu
0.5% detergent, 75 min
  Average Relative Light Unit Values: 0.28 rlu
0.5% detergent, 169 min
  Average Relative Light Unit Values: 0.23 rlu
0.5% detergent, 222 min
  Average Relative Light Unit Values: 0.27 rlu
0.5% detergent, 260 min
  Average Relative Light Unit Values: 0.18 rlu
1.0% detergent, 5 min
  Average Relative Light Unit Values: 0.09 rlu
1.0% detergent, 75 min
  Average Relative Light Unit Values: 0.08 rlu
1.0% detergent, 169 min
  Average Relative Light Unit Values: 0.07 rlu
1.0% detergent, 222 min
  Average Relative Light Unit Values: 0.06 rlu
1.0% detergent, 260 min
  Average Relative Light Unit Values: 0.07 rlu
CTAB 0.05%
  times more ATP present in the sample after four hours when the detergent was present than when it was absent: about four
[1]
  Percent ATP Remaining: 100.00%
[2]
  Percent ATP Remaining: 43.22%
[3]
  Percent ATP Remaining: 15.49%
[4]
  Percent ATP Remaining: 9.73%
[5]
  Percent ATP Remaining: 6.92%
